Counter-ions that a name gives are not always drawn.
Each molecule was assayed on HT29. Conditions: 72 h, relative to DMSO, 10 µM, Relative cell viability (%).
Source text: To investigate the key signaling pathways and biological processes involved in CRC progression, we analyzed the National Center for Biotechnology Information Gene Expression Omnibus (GEO) dataset GSE115313, which included 42 CRC and paired normal tissues (Figure 1A). […] Next, we performed an Annexin V‐fluorescein isothiocyanate (FITC)/propidium iodide (PI) staining assay to determine the effect of aripiprazole on apoptosis in CRC cells. […] A) Principal component analysis of GEO dataset (GSE115313), which includes 42 CRC and paired normal tissues. B) Gene Ontology pathway analysis of the DEPs between CRC and paired normal tissues. […] D) Schematic diagram for identifying anticancer drugs amongst an US Food and Drug Administration‐approved small‐molecule library (616 compounds) using WST‐1 assay. E) HT29 cells were treated with the 616 drugs (10 µM) individually or with dimethyl sulfoxide for 72 h, followed by WST‐1 assay. […] J) Mice bearing HT29‐derived tumor xenografts were intragastrically administered with aripiprazole (10 or 20 mg kg^−1) once every 2 d, n = 6 mice/group. […] Bars, SD; ^* p < 0.05; ^** p < 0.01; ^*** p < 0.001; ns, no significant difference. The WST‐1 Cell Proliferation and Cytotoxicity Assay Kit (Beyotime Biotechnology, Shanghai, China) was used to measure cell viability, as described previously.^[ [10] ^] CRC cells were seeded into 96‐well plates and treated with different drug concentrations. Following that, WST‐1 was added to the plate and incubated with the cells for 2 h, at 37 °C. Absorbance at the wavelength of 450 nm was measured using an automated microplate spectrophotometer (BioTek Instruments, Winooski, VT, USA).

| Compound | Relative cell viability (%) |
| --- | --- |
| Cc1c(-c2ccc(O)cc2)n(Cc2ccc(OCCN3CCCCCC3)cc2)c2ccc(O)cc12 [Bazedoxifene Acetate] | 88.41% |
| Cc1c(-c2ccc(O)cc2)n(Cc2ccc(OCCN3CCCCCC3)cc2)c2ccc(O)cc12 [Bazedoxifene HCl] | 91.36% |
| CC(C)NCC(O)COc1ccc(CCOCC2CC2)cc1 (stereo not drawn) [Betaxolol hydrochloride (Betoptic)] | 100.8% |
| CC(C)NCC(O)COc1ccc(CCOCC2CC2)cc1 (stereo not drawn) [Betaxolol] | 109.6% |
| COc1ccccc1Oc1c(NS(=O)(=O)c2ccc(C(C)(C)C)cc2)nc(-c2ncccn2)nc1OCCO [Bosentan Hydrate] | 83.98% |
| COc1ccccc1Oc1c(NS(=O)(=O)c2ccc(C(C)(C)C)cc2)nc(-c2ncccn2)nc1OCCO [Bosentan] | 63.94% |

Same assay, conditions: 72 h, relative to DMSO; 10 µM

| Compound | Relative cell viability (%) |
| --- | --- |
| CCOc1nc2cccc(C(=O)O)c2n1Cc1ccc(-c2ccccc2-c2noc(=O)[nH]2)cc1 [Azilsartan] | 73.79% |
| CC[C@H]1OC(=O)[C@H](C)[C@@H](O[C@H]2C[C@@](C)(OC)[C@@H](O)[C@H](C)O2)[C@H](C)[C@@H](O[C@@H]2O[C@H](C)C[C@H](N(C)C)[C@H]2O)[C@](C)(O)C[C@@H](C)CN(C)[C@H](C)[C@@H](O)[C@]1(C)O [Azithromycin] | 33.47% |
| CCc1cc(/C(C)=N/OCc2ccc(C3CCCCC3)c(C(F)(F)F)c2)ccc1CN1CC(C(=O)O)C1 [BAF312 (Siponimod)] | 107.265% |
| Cc1nc(NC(=O)N2CCC[C@H]2C(N)=O)sc1-c1ccnc(C(C)(C)C(F)(F)F)c1 [BYL719] | 50.49% |
| Cc1ccc(NC(=O)c2ccc(CN3CC[C@H](N(C)C)C3)c(C(F)(F)F)c2)cc1Nc1nccc(-c2cncnc2)n1 [Bafetinib (INNO-406)] | 4.206% |
| CNC1CCCN(c2c(F)cc3c(=O)c(C(=O)O)cn(C4CC4)c3c2OC)C1 (stereo not drawn) [Balofloxacin] | 111.9% |
| CNC(=O)[C@H](Cc1ccccc1)NC(=O)[C@H](CC(C)C)[C@H](CSc1cccs1)C(=O)NO [Batimastat (BB-94)] | 103.4% |
| CCC1(C)CC(=O)NC(=O)C1 [Bemegride] | 88.48% |
| CCOC(=O)[C@H](CCc1ccccc1)N[C@H]1CCc2ccccc2N(CC(=O)O)C1=O [Benazepril HCl] | 72.74% |
| NC(CO)C(=O)NNCc1ccc(O)c(O)c1O (stereo not drawn) [Benserazide HCl] | 108.4% |
| CCc1oc2ccccc2c1C(=O)c1cc(Br)c(O)c(Br)c1 [Benzbromarone] | 82.12% |
| CCOC(=O)c1ccc(N)cc1 [Benzocaine] | 80.303% |
| O=C(O)CCCN1CCC(O[C@@H](c2ccc(Cl)cc2)c2ccccn2)CC1 [Bepotastine Besilate] | 89.81% |
| O=C(O)CCNC(=O)c1ccccc1 [Betamipron] | 90.303% |
| CC(C[N+](C)(C)C)OC(N)=O (stereo not drawn) [Bethanechol chloride] | 104.3% |
| C=C(c1ccc(C(=O)O)cc1)c1cc2c(cc1C)C(C)(C)CCC2(C)C [Bexarotene] | 134.4% |
| c1ccc(-c2ccc(C(c3ccccc3)n3ccnc3)cc2)cc1 (stereo not drawn) [Bifonazole] | 88.14% |
| CC[C@H](NC(=O)[C@H](C)NC)C(=O)N1C[C@@H](O)C[C@H]1Cc1c(-c2[nH]c3cc(F)ccc3c2C[C@@H]2C[C@H](O)CN2C(=O)[C@H](CC)NC(=O)[C@H](C)NC)[nH]c2cc(F)ccc12 [Birinapant] | 132.9% |
| Cc1c(N)nc([C@H](CC(N)=O)NC[C@H](N)C(N)=O)nc1C(=O)N[C@H](C(=O)N[C@H](C)[C@@H](O)[C@H](C)C(=O)N[C@H](C(=O)NCCc1nc(-c2nc(C(=O)NCCC[S+](C)C)cs2)cs1)[C@@H](C)O)[C@@H](O[C@@H]1O[C@@H](CO)[C@@H](O)[C@H](O)[C@@H]1O[C@H]1O[C@H](CO)[C@@H](O)[C@H](OC(N)=O)[C@@H]1O)c1c[nH]cn1 [Bleomycin Sulfate] | 74.3% |
| Nc1c(CC(=O)O)cccc1C(=O)c1ccc(Br)cc1 [Bromfenac Sodium] | 78.48% |
| CN(Cc1cc(Br)cc(Br)c1N)C1CCCCC1 [Bromhexine HCl] | 122.9% |
| Oc1c(Br)cc(Br)c2cccnc12 [Broxyquinoline] | 83.94% |
| CCCC1O[C@@H]2C[C@H]3[C@@H]4CCC5=CC(=O)C=C[C@]5(C)[C@H]4[C@@H](O)C[C@]3(C)[C@]2(C(=O)CO)O1 (stereo partly drawn) [Budesonide] | 83.64% |
| CCCCOc1ccc(CC(=O)NO)cc1 [Bufexamac] | 101.5% |
| COc1cc(OC)c(C(=O)CCCN2CCCC2)c(OC)c1 [Buflomedil HCl] | 34.47% |
| CCCCNc1cc(C(=O)O)cc(S(N)(=O)=O)c1Oc1ccccc1 [Bumetanide] | 61.84% |
| CCCCN1CCCCC1C(=O)Nc1c(C)cccc1C (stereo not drawn) [Bupivacaine HCl] | 106.7% |

| Compound | Relative cell viability (%) |
| --- | --- |
| O=C1CC2(CCCC2)CC(=O)N1CCCCN1CCN(c2ncccn2)CC1 [Buspirone HCl] | 73.94% |
| Clc1ccc(CCC(Cn2ccnc2)Sc2c(Cl)cccc2Cl)cc1 (stereo not drawn) [Butoconazole nitrate] | 63.98% |
| CC[C@H](Nc1ncnc2[nH]cnc12)c1nc2cccc(F)c2c(=O)n1-c1ccccc1 [CAL-101 (Idelalisib, GS-1101)] | 112.6% |
| NC(=O)c1cc(N2CC2)c([N+](=O)[O-])cc1[N+](=O)[O-] [CB1954] | 115% |
| C=CC(=O)Nc1cccc(Nc2nc(Nc3ccc(N4CCN(C(C)=O)CC4)cc3OC)ncc2C(F)(F)F)c1 [CO-1686 (AVL-301)] | 16.24% |
| O=C(O)c1ccc2c(c1)nc(Nc1cccc(Cl)c1)c1ccncc12 [CX-4945 (Silmitasertib)] | 120.8% |
| CO[C@H]1C(=O)[C@]2(C)[C@@H](OC)C[C@H]3OC[C@@]3(OC(C)=O)[C@H]2[C@H](OC(=O)c2ccccc2)[C@]2(O)C[C@H](OC(=O)[C@H](O)[C@@H](NC(=O)OC(C)(C)C)c3ccccc3)C(C)=C1C2(C)C [Cabazitaxel] | 12.62% |
| CN(C)C(=O)COC(=O)Cc1ccc(OC(=O)c2ccc(NC(=N)N)cc2)cc1 [Camostat Mesilate] | 140.8% |
| Cc1ccc([C@@H]2O[C@H](CO)[C@@H](O)[C@H](O)[C@H]2O)cc1Cc1ccc(-c2ccc(F)cc2)s1 [Canagliflozin] | 72.33% |
| CCOc1nc2cccc(C(=O)OC(C)OC(=O)OC3CCCCC3)c2n1Cc1ccc(-c2ccccc2-c2nnn[nH]2)cc1 (stereo not drawn) [Candesartan Cilexetil] | 195.6% |
| C[C@H](CS)C(=O)N1CCC[C@H]1C(=O)O [Captopril] | 243.5% |
| CN1C2=CC(=O)/C(=N\NC(N)=O)C=C2CC1S(=O)(=O)O (stereo not drawn) [Carbazochrome sodium sulfonate (AC-17)] | 50.49% |
| C[C@@](Cc1ccc(O)c(O)c1)(NN)C(=O)O [Carbidopa] | 97.03% |
| CC(C)C[C@H](NC(=O)[C@H](CCc1ccccc1)NC(=O)CN1CCOCC1)C(=O)N[C@@H](Cc1ccccc1)C(=O)N[C@@H](CC(C)C)C(=O)[C@@]1(C)CO1 [Carfilzomib (PR-171)] | 15.53% |
| CCCCCCNC(=O)n1cc(F)c(=O)[nH]c1=O [Carmofur] | 24.45% |
| CC(C)(C)NCC(O)COc1cccc2c1CCC(=O)N2 (stereo not drawn) [Carteolol HCl] | 86.67% |
| COc1ccccc1OCCNCC(O)COc1cccc2[nH]c3ccccc3c12 (stereo not drawn) [Carvedilol] | 24.58% |
| CO/N=C(\C(=O)N[C@@H]1C(=O)N2C(C(=O)OCOC(=O)C(C)(C)C)=C(/C=C\c3scnc3C)CS[C@H]12)c1csc(N)n1 [Cefditoren Pivoxil] | 66.53% |
| Cc1ccc(-c2cc(C(F)(F)F)nn2-c2ccc(S(N)(=O)=O)cc2)cc1 [Celecoxib] | 69.63% |
| CCS(=O)(=O)N1CCN(c2ccc(Nc3ncc(C(N)=O)c(NC4CC4)n3)cc2)CC1 [Cerdulatinib (PRT062070, PRT2070)] | 36.75% |
| CCCCCCCCCCCCCCCC[N+](C)(C)C [Cetrimonium Bromide (CTAB)] | 18.48% |
| CCCCCCCCCCCCCCCC[n+]1ccccc1 [Cetylpyridinium Chloride] | 5.758% |
| C[C@H](CCC(=O)O)[C@H]1CC[C@H]2[C@@H]3[C@H](O)C[C@@H]4C[C@H](O)CC[C@]4(C)[C@H]3CC[C@]12C [Chenodeoxycholic Acid] | 60.17% |
| [H]/N=C(\N/C(=N/[H])NCCCCCCNC(=N)NC(=N)Nc1ccc(Cl)cc1)Nc1ccc(Cl)cc1 [Chlorhexidine HCl] | 28.64% |
| CN1C(=O)CCS(=O)(=O)C1c1ccc(Cl)cc1 (stereo not drawn) [Chlormezanone] | 142.8% |
| Cc1cc(O)ccc1Cl [Chlorocresol] | 65.76% |
| Oc1c(Cl)cc(Cl)c2cccnc12 [Chloroxine] | 69.07% |
